Data on 3 molecules can be found in ChEMBL document CHEMBL4229536, “In vitro and in vivo pharmacokinetic and pharmacodynamic study of MBRI-001, a deuterium-substituted plinabulin derivative as a potent anti-cancer agent” (Bioorg Med Chem, 2018).

Data set [1] deals with Mus musculus. As to the kind of experiment: Toxicity in nude mouse xenografted with human NCI-H460 cells assessed as death at 25 to 100 mg/kg, po qd for 14 consecutive days. The settings on record: in vivo. The data set is classed as organism-based. Background: A xenograft is tissue or cells of one species grown in another, often human tumour cells in immunodeficient mice.

Data set [2] can be described thus: Stability in rat plasma at 1 uM after 120 mins by LC-MS/MS analysis. Particulars: read-out: Stability. The data set is classed as ADME, cell-free.
Data set [3] can be described thus: Stability in rat liver microsomes at 50 uM after 60 mins in presence of NADPH by LC-MS/MS analysis. The format is ADME, microsome. Particulars: read-out: Stability. On the technique in general: Liver microsomes are a subcellular fraction often used to study metabolism.
The target in a further data set is Cytochrome P450 2D6 (Homo sapiens, UniProt P10635). Put plainly: Inhibition of CYP2D6 in human liver microsomes preincubated for 10 mins followed by NADPH addition measured after 10 mins by LC-MS/MS analysis. The data set is classed as ADME.
Cytochrome P450 2D6, sequence (P10635 whole entry): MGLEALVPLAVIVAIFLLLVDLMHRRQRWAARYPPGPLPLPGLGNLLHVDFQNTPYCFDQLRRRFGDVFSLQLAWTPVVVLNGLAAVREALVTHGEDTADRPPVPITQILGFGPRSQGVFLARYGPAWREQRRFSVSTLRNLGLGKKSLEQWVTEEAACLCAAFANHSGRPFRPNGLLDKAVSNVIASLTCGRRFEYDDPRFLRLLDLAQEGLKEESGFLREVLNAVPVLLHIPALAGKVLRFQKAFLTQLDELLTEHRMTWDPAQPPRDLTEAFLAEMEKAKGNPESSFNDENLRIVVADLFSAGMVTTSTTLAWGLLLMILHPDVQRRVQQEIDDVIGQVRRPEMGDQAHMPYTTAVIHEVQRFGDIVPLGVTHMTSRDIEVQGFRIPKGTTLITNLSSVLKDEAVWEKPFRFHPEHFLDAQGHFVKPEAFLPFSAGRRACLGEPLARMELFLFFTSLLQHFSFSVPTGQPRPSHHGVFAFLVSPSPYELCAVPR
Data set [4] can be described thus: Protein binding in Sprague-Dawley rat plasma at 2 uM after 4 hrs by LC-MS/MS analysis. The settings on record: read-out: PPB (converted). The format is ADME, cell-free.
The next data set has as its target Cytochrome P450 3A4 (Homo sapiens, UniProt P08684). As to the kind of experiment: Inhibition of CYP3A4 in human liver microsomes preincubated for 10 mins followed by NADPH addition measured after 10 mins by LC-MS/MS analysis. The data set is classed as ADME.
Data set [5] is described as follows: Protein binding in Beagle dog plasma at 2 uM after 4 hrs by LC-MS/MS analysis. The data set is classed as ADME, cell-free, Canis lupus familiaris. Particulars: read-out: PPB (converted).
The nature of data set [6]: Stability in rat liver microsomes at 50 uM after 270 mins in presence of NADPH by LC-MS/MS analysis. The format is ADME, microsome. Particulars: 4.5 h.
A further data set deals with Cytochrome P450 2C9 (Homo sapiens, UniProt P11712). As to the kind of experiment: Inhibition of CYP2C9 in human liver microsomes preincubated for 10 mins followed by NADPH addition measured after 10 mins by LC-MS/MS analysis. The data set is classed as ADME.
Cytochrome P450 2C9, sequence (P11712 whole entry): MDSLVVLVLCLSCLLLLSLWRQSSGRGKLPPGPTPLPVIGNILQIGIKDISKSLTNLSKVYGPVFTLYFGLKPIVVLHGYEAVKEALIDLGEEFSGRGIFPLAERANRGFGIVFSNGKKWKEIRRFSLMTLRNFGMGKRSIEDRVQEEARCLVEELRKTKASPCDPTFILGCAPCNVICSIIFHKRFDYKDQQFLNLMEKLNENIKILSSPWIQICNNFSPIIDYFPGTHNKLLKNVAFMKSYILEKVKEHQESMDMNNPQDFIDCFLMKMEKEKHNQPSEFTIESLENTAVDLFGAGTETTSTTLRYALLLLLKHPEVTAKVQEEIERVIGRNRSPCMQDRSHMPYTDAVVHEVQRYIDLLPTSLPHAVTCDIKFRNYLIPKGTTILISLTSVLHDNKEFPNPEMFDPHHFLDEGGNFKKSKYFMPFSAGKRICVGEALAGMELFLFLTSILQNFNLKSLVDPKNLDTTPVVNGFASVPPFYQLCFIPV
Data set [7] is described as follows: Stability in rat plasma at 1 uM after 10 mins by LC-MS/MS analysis. The data set is classed as ADME, cell-free. Particulars: read-out: Stability.
Data set [8] in a line: Stability in rat liver microsomes at 50 uM after 10 mins in presence of NADPH by LC-MS/MS analysis. The format is ADME, microsome. The settings on record: microsomes, 10 min, 50 µM.
Data set [9] is described as follows: Stability in rat plasma at 1 uM after 90 mins by LC-MS/MS analysis. The format is ADME, cell-free. The settings on record: read-out: Stability.
A short description of data set [10]: Stability in rat liver microsomes at 50 uM after 20 mins in presence of NADPH by LC-MS/MS analysis. The data set is classed as ADME, microsome. Particulars: read-out: Stability.
A short description of data set [11]: Stability in rat liver microsomes at 50 uM after 210 mins in presence of NADPH by LC-MS/MS analysis. Particulars: microsomes, 3.5 h, 50 µM. The data set is classed as ADME, microsome.
Data set [12] is described as follows: Stability in rat plasma at 1 uM after 60 mins by LC-MS/MS analysis. The format is ADME, cell-free. Particulars: read-out: Stability.
The nature of data set [13]: Stability in rat liver microsomes at 50 uM after 120 mins in presence of NADPH by LC-MS/MS analysis. The format is ADME, microsome. The settings on record: read-out: Stability.
Another data set concerns the target T1, Cytochrome P450 1A2 (Homo sapiens, UniProt P05177).
T1 sequence (P05177 whole entry): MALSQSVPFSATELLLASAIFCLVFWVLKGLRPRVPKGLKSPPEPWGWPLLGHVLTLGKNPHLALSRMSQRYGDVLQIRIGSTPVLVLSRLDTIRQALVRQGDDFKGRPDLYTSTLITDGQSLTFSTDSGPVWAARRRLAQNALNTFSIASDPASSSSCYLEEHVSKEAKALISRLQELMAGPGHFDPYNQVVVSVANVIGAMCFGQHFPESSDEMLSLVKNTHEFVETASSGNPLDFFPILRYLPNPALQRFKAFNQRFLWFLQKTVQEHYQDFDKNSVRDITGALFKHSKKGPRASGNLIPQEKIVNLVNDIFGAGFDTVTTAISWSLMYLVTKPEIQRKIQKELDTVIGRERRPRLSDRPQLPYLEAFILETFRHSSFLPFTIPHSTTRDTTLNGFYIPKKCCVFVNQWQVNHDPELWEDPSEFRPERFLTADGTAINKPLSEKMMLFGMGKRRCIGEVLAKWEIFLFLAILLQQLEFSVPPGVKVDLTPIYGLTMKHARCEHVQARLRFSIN
As to the kind of experiment: Inhibition of CYP1A2 in human liver microsomes preincubated for 10 mins followed by NADPH addition measured after 10 mins by LC-MS/MS analysis. The format is ADME.

The nature of data set [14]: Stability in rat liver microsomes at 50 uM after 5 mins in presence of NADPH by LC-MS/MS analysis. The format is ADME, microsome. Particulars: microsomes, 5 min, 50 µM.
Data set [15] can be described thus: Stability in rat plasma at 1 uM after 40 mins by LC-MS/MS analysis. The data set is classed as ADME, cell-free. Particulars: read-out: Stability.
Data set [16] is described as follows: Stability in rat liver microsomes at 50 uM after 90 mins in presence of NADPH by LC-MS/MS analysis. The data set is classed as ADME, microsome. The settings on record: read-out: Stability.
Data set [17] is described as follows: Stability in rat liver microsomes at 50 uM after 150 mins in presence of NADPH by LC-MS/MS analysis. The settings on record: read-out: Stability. The data set is classed as ADME, microsome.
Data set [18] can be described thus: Clearance in rat liver microsomes at 50 uM in presence of NADPH by LC-MS/MS analysis. The format is ADME, microsome. Particulars: read-out: CLH.
Data set [19] is described as follows: Half life in rat liver microsomes at 50 uM in presence of NADPH by LC-MS/MS analysis. The format is ADME, microsome.
Data set [20] in a line: Protein binding in human plasma at 2 uM after 4 hrs by LC-MS/MS analysis. Particulars: read-out: PPB (converted). The data set is classed as ADME, cell-free.
A short description of data set [21]: Stability in rat liver microsomes at 50 uM after 40 mins in presence of NADPH by LC-MS/MS analysis. The data set is classed as ADME, microsome. The settings on record: read-out: Stability.
Data set [22] can be described thus: Stability in rat plasma at 1 uM after 5 mins by LC-MS/MS analysis. The data set is classed as ADME, cell-free. The settings on record: read-out: Stability.
The next data set addresses Cytochrome P450 2C19 (Homo sapiens, UniProt P33261). Put plainly: Inhibition of CYP2C19 in human liver microsomes preincubated for 10 mins followed by NADPH addition measured after 10 mins by LC-MS/MS analysis. The data set is classed as ADME.
Data set [23] in a line: Stability in rat plasma at 1 uM after 20 mins by LC-MS/MS analysis. The data set is classed as ADME, cell-free. Particulars: read-out: Stability.
Data set [24] concerns Mus musculus. As to the kind of experiment: Toxicity in Balb/c mouse assessed as mortality at 20 to 40 mg/kg, iv administered three times in a day every 2 days for 15 consecutive days. The data set is classed as organism-based. The settings on record: in vivo, 48 h.

Cytochrome P450 3A4, sequence (P08684 whole entry): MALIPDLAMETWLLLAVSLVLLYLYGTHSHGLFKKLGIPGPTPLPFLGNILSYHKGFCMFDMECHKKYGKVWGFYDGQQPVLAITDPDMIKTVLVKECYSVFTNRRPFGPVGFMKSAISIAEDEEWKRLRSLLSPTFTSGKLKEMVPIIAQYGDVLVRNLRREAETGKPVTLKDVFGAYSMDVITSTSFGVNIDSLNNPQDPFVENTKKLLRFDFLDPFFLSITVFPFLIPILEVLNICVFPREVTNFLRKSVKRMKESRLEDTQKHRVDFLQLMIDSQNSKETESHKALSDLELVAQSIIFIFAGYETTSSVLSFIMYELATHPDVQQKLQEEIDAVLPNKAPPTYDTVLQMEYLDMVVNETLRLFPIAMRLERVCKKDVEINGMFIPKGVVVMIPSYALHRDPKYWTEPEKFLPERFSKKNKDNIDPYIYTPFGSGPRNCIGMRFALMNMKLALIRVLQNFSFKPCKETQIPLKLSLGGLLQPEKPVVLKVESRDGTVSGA
Cytochrome P450 2C19, sequence (P33261 whole entry): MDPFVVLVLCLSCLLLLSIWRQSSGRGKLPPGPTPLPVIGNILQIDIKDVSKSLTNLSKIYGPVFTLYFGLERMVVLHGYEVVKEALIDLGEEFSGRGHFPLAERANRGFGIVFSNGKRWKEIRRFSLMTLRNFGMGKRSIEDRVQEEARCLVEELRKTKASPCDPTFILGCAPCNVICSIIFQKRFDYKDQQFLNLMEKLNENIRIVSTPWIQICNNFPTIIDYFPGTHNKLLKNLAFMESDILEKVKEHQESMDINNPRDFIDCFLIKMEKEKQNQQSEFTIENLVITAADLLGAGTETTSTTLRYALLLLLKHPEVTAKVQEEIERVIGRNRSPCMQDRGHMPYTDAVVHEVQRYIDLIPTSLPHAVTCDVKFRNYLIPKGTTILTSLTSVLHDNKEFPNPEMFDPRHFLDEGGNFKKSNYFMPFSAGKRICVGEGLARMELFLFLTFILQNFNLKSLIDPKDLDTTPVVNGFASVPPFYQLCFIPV

For `COc1cc2ncnc(Nc3ccc(F)c(Cl)c3)c2cc1OCCCN1CCOCC1` [GEFITINIB], the Activity entry in the data set with Mus musculus [1] was “Non-Toxic”.
For the molecule `CC(C)(C)c1[nH]cnc1/C=c1\[nH]c(=O)/c(=C/c2ccccc2)[nH]c1=O` [PLINABULIN], in [2], the remaining at 2 h, 1 µM turned out to be 109%. The remaining at 1 h, 50 µM in data set [3] stood at 44.8%. For the same molecule, the IC50 against Cytochrome P450 2D6 is above 50000 nM; on Cytochrome P450 3A4 it was above 50000 nM; against Cytochrome P450 2C9, 530 nM; against Cytochrome P450 1A2, 1240 nM; on Cytochrome P450 2C19 it was 4230 nM. Besides, the results for the fraction unbound at 4 h, 2 µM in [4], in data set [5] and in data set [20] were 0.039, 0.028 and 0.018, respectively. Further, the Stability came out at 34.94% in [6], 65.58% in [8], 29.64% in data set [11] and 77.21% in data set [14]. Besides, in data set [7], the remaining at 10 min, 1 µM amounted to 97.7%. Besides, the remaining at 1.5 h, 1 µM in [9] was found to be 110%. Also, the remaining at 20 min, 50 µM in data set [10] was 63.5%. Further, in [12], the remaining at 1 h, 1 µM worked out at 103%. Moreover, the remaining at 2 h, 50 µM in data set [13] worked out at 29.9%. Also, the remaining at 40 min, 1 µM in data set [15] worked out at 99%. In addition, the remaining at 1.5 h, 50 µM in data set [16] was 41.1%. The remaining at 2.5 h, 50 µM in data set [17] was determined as 29.9%. In addition, in data set [18], the microsomal CLint at 50 µM came out at 23.4 µL/min/mg. For the same molecule, the t1/2 in data set [19] is on record as 59.34 min. In addition, the remaining at 40 min, 50 µM in data set [21] came to 56.6%. Further, the remaining at 5 min, 1 µM in data set [22] amounted to 95.5%. For the same molecule, the remaining at 20 min, 1 µM in [23] is 98.2%.
For the molecule `Nc1ccn([C@@H]2O[C@H](CO)[C@@H](O)C2(F)F)c(=O)n1` [GEMCITABINE], the Activity result with Mus musculus [24] is listed as “Non-Toxic”.

For orientation: IC50 means the concentration needed to halve the response being measured.
